Measurements reported in publication PMC8958505, “Discovery of Potential Neuroprotective Agents against Paclitaxel-Induced Peripheral Neuropathy” (Journal of Medicinal Chemistry, 2022).

Assays:
primary cortical neurons [1] = assay: Neurite outgrowth assay of primary cortical neurons (image-based HCS) against paclitaxel-induced neurotoxicity; type: cell-based, mouse; details: for activity at 0.01 µM / activity at 1 µM: Mus musculus, Primary cortical neuron; for activity at 0.01 µM: read-out: C: Neurite outgrowth (% of control) of test compound (10 nM) + paclitaxel (1 μM); for activity at 1 µM: read-out: D: Neurite outgrowth (% of control) of test compound (1000 nM) + paclitaxel (1 μM)
Excerpt: (§1) Herein, we wish to report that an in vitro neurite outgrowth assay of cortical neurons integrated with an image-based high-content screening (HCS) platform is used to evaluate a commercially available library of 78 minoxidil-related derivatives,[22] leading to the identification of a series of analogues able to prevent or alleviate paclitaxel-induced neurotoxicity. The project began with screening compounds with the primary culture of cortical neurons from neonatal mice. More specifically, cerebral cortex neurons cultured from P0 C57BL/6J mouse pups were incubated with a test compound (10 and 1000 nM) prior to paclitaxel (1 μM) treatment. Subsequently, both neurite outgrowth and synaptogenesis were measured to evaluate the test compounds’ neuroprotective capacity. […] This unique feature is preserved for the core-structure screening of our in-house library in the following subject. Moreover, the substituent at the C4 position appears flexible in terms of structural diversity. Collectively, CSV0A024807, the only one displaying the best neuroprotective potency on both neurite outgrowth and synaptogenesis assays, was thus elected as a potential hit compound for further development.
(§2) Primary cortical or DRG cells were fixed with 4% paraformaldehyde for 15 min following compound and paclitaxel treatment. After washing with PBS, the fixed cells were permeabilized with PBS containing 0.05% Triton X-100 for 20 min and then blocked with commercial blocking buffer (#GTX30963; GeneTex, USA) at room temperature for 1 h. Subsequently, the cortical cells were stained for the extending processes and synaptic puncta by using anti-MAP2 (#MBS502140, 1:500; Mybiosource, USA) and anti-synaptophysin (#ab32127, 1:500; Abcam, UK) overnight. DRG cells were stained for the neurite and neuron nucleus by using anti-β III tubulin (#D71G9, 1:600; Cell Signaling, USA) and anti-NeuN monoclonal antibody (#MAB377, 1:400; Millipore, USA) overnight. On the second day, the samples were washed for 30 min with wash buffer and incubated with secondary antibodies (Alexa-488, 647 1:600; Thermo Fisher, USA) and 4 μg/mL Hoechst 33258 (#94403-1ML, 1:100; Merck, USA) at room temperature for 1 h. In the initial experiments of screening the potential neuroprotective compound for CIPN, ImageXpress^Micro (IXM) high-content imaging system (Molecular Devices, USA) driven by MetaXpress software was used. Images of treated cells were automatically acquired by using a 10× objective. Twenty-one images per well were taken in each of three channels (DAPI, FITC, and Cy5) to create a whole view of the entire neural network. The integrity of the neural network was evaluated using TIF images by importing them into MetaXpress software for analysis using the module for multiparameter, such as Neurite Outgrowth, Cell Scoring, and Transfluor. Furthermore, the score of synaptogenesis was analyzed in AcuityXpress software (Molecular Devices, USA).

primary cortical neurons [2] = assay: Synaptogenesis assay of primary cortical neurons (image-based HCS) against paclitaxel-induced neurotoxicity; type: cell-based, mouse; details: for activity at 0.01 µM / activity at 1 µM: Mus musculus, Primary cortical neuron; for activity at 0.01 µM: read-out: A: Synaptogenesis (% of control) of test compound (10 nM) + paclitaxel (1 μM); for activity at 1 µM: read-out: B: Synaptogenesis (% of control) of test compound (1000 nM) + paclitaxel (1 μM); for attenuation of synaptogenesis inhibited by paclitaxel (in words): test compound 10 and 1000 nM prior to paclitaxel 1 μM, Figure 1A
Excerpt: as §1, §2

[3] = test compound 10 nM + paclitaxel 1 μM, mean ± SE
[4] = test compound 1000 nM + paclitaxel 1 μM, mean ± SE

| SMILES | activity at 0.01 µM (primary cortical neurons [1]; [3]) [%] | activity at 1 µM (primary cortical neurons [1]; [4]) [%] | activity at 0.01 µM (primary cortical neurons [2]; [3]) [%] | activity at 1 µM (primary cortical neurons [2]; [4]) [%] | further results |
| --- | --- | --- | --- | --- | --- |
| Oc1ccc(/C=N/Nc2cc(N3CCOCC3)nc(N3CCOCC3)n2)cc1 [CSV0A013029] | 58 ± 2 | 54 ± 5 | 72 ± 2 | 84 ± 6 | attenuation of synaptogenesis inhibited by paclitaxel (in words) (primary cortical neurons [2]): significantly attenuated |
| CN(C)c1cc(NNC(=O)c2ccccc2O)nc(N(C)C)n1 [CSV0A2327S0] | 55 ± 1 | 53 ± 5 | 42 ± 2 | 41 ± 5 | – |
| CCN(CC)c1cc(N/N=C/c2ccccc2O)nc(N(CC)CC)n1 [CSV0B018834] | 39 ± 3 | 39 ± 2 | 30 ± 3 | 31 ± 3 | – |
| Oc1ccc(Br)cc1/C=N/Nc1cc(N2CCOCC2)nc(N2CCOCC2)n1 [CSV0A013030] | 76 ± 5 | 89 ± 11 | 26 ± 2 | 26 ± 3 | – |
| COc1cc(/C=N/Nc2cc(N(C)C)nc(N(C)C)n2)ccc1O [CSV0A055768] | – | – | – | – | activity at 0.01 µM (primary cortical neurons [1]): 71 ± 2%; activity at 1 µM (primary cortical neurons [1]): 74 ± 6%; activity at 0.01 µM (primary cortical neurons [2]): 35 ± 4%; activity at 1 µM (primary cortical neurons [2]): 33 ± 0.2% |
| CCN(CC)c1cc(NNC(=O)c2ccc(C(C)(C)C)cc2)nc(N(CC)CC)n1 [CSV0B008884] | 41 ± 3 | 41 ± 4 | 35 ± 3 | 37 ± 3 | – |
| CCCN(CCC)c1cc(N/N=C/c2cc(Br)ccc2O)nc(N(CCC)CCC)n1 [CSV0A020330] | 27 ± 2 | 45 ± 3 | 22 ± 3 | 45 ± 7 | – |
| CCCN(CCC)c1cc(N/N=C/c2ccccc2OC)nc(N(CCC)CCC)n1 [CSV0A011999] | 45 ± 5 | 53 ± 3 | 33 ± 4 | 37 ± 2 | – |
| COc1ccccc1/C=N/Nc1cc(N2CCCCC2)nc(N2CCCCC2)n1 [CSV0A061666] | 91 ± 3 | 89 ± 7 | 41 ± 1 | 42 ± 4 | – |
| CCN(CC)c1cc(N/N=C/c2ccc(O)c(OC)c2)nc(N(CC)CC)n1 [CSV0B009489] | 39 ± 4 | 41 ± 3 | 34 ± 3 | 36 ± 3 | – |
| O=C(NNc1cc(N2CCOCC2)nc(N2CCOCC2)n1)c1ccccc1 [CSV0A051549] | 71 ± 1 | 68 ± 1 | 86 ± 6 | 77 ± 7 | protective effect in the neurite outgrowth assay (in words) (primary cortical neurons [1]; test compound 10 and 1000 nM prior to paclitaxel 1 μM, Figure 1A): significant protective effect |
| O=[N+]([O-])c1cc(/C=N/Nc2cc(N3CCCCCC3)nc(N3CCCCCC3)n2)cc2c1OCO2 [CSV0A024811] | 69 ± 7 | 60 ± 3 | 52 ± 1 | 46 ± 4 | – |
| CN(C)c1cc(NNC(=O)CCc2ccccc2)nc(N(C)C)n1 [CSV0B008273] | – | – | – | – | activity at 0.01 µM (primary cortical neurons [1]): 46 ± 3%; activity at 1 µM (primary cortical neurons [1]): 53 ± 2%; activity at 0.01 µM (primary cortical neurons [2]): 39 ± 2%; activity at 1 µM (primary cortical neurons [2]): 36 ± 2% |
| CC(C)(C)c1ccc(C(=O)NNc2cc(N3CCOCC3)nc(N3CCOCC3)n2)cc1 [CSV0B026196] | 83 ± 5 | 65 ± 4 | 36 ± 2 | 32 ± 1 | – |
| O=C(CCc1ccccc1)NNc1cc(N2CCOCC2)nc(N2CCOCC2)n1 [CSV0C009114] | – | – | – | – | activity at 0.01 µM (primary cortical neurons [1]): 70 ± 7%; activity at 1 µM (primary cortical neurons [1]): 65 ± 3%; activity at 0.01 µM (primary cortical neurons [2]): 48 ± 5%; activity at 1 µM (primary cortical neurons [2]): 49 ± 3% |
| COc1cc(/C=N/Nc2cc(N3CCCC3)nc(N3CCCC3)n2)ccc1O [CSV0B016174] | 86 ± 3 | 76 ± 4 | 43 ± 3 | 36 ± 4 | – |
| CN(C)c1cc(N/N=C/c2cccs2)nc(N(C)C)n1 [CSV0A055769] | 68 ± 3 | 62 ± 2 | 83 ± 1 | 97 ± 8 | attenuation of synaptogenesis inhibited by paclitaxel (in words) (primary cortical neurons [2]): significantly attenuated |

| SMILES | activity at 0.01 µM (primary cortical neurons [1]; [3]) [%] | activity at 1 µM (primary cortical neurons [1]; [4]) [%] | activity at 0.01 µM (primary cortical neurons [2]; [3]) [%] | activity at 1 µM (primary cortical neurons [2]; [4]) [%] | further results |
| --- | --- | --- | --- | --- | --- |
| CCN(CC)c1cc(N/N=C/c2ccncc2)nc(N(CC)CC)n1 [CSV0A029945] | 41 ± 8 | 75 ± 8 | 35 ± 6 | 50 ± 0.3 | – |
| CN(C)c1cc(N/N=C/c2cc3c(c([N+](=O)[O-])c2)OCO3)nc(N(C)C)n1 [CSV0A047583] | 63 ± 3 | 61 ± 3 | 66 ± 4 | 69 ± 5 | – |
| CN(C)c1ccc(/C=N/Nc2cc(N3CCOCC3)nc(N3CCOCC3)n2)cc1 [CSV0A041617] | 93 ± 5 | 94 ± 1 | 30 ± 1 | 30 ± 1 | – |
| COc1ccc(/C=N/Nc2cc(N3CCCC3)nc(N3CCCC3)n2)cc1 [CSV0A024813] | 66 ± 2 | 63 ± 2 | 98 ± 4 | 81 ± 5 | attenuation of synaptogenesis inhibited by paclitaxel (in words) (primary cortical neurons [2]): significantly attenuated |
| Oc1ccccc1/C=N/Nc1cc(N2CCCCC2)nc(N2CCCCC2)n1 [CSV0B023377] | 57 ± 2 | 57 ± 4 | 42 ± 1 | 42 ± 3 | – |
| CCCN(CCC)c1cc(N/N=C/c2ccc(Cl)cc2)nc(N(CCC)CCC)n1 [CSV0A061665] | 37 ± 7 | 27 ± 3 | 27 ± 3 | 27 ± 5 | – |
| Cc1ccccc1C(=O)NNc1cc(N2CCOCC2)nc(N2CCOCC2)n1 [CSV0A062712] | 67 ± 10 | 63 ± 6 | 52 ± 7 | 51 ± 2 | – |
| CN(C)c1cc(N/N=C/c2ccccc2)nc(N(C)C)n1 [CSV0A047582] | – | – | – | – | activity at 0.01 µM (primary cortical neurons [1]): 69 ± 3%; activity at 1 µM (primary cortical neurons [1]): 67 ± 3%; activity at 0.01 µM (primary cortical neurons [2]): 73 ± 3%; activity at 1 µM (primary cortical neurons [2]): 77 ± 9% |
| CCN(CC)c1cc(NNC(=O)c2ccccc2OC)nc(N(CC)CC)n1 [CSV0A008237] | 56 ± 1 | 50 ± 9 | 45 ± 4 | 45 ± 8 | – |
| Clc1ccc(/C=N/Nc2cc(N3CCOCC3)nc(N3CCOCC3)n2)cc1 [CSV0A024808] | 91 ± 1 | 89 ± 4 | 27 ± 1 | 25 ± 1 | – |
| O=C(CCc1ccccc1)NNc1cc(N2CCCCC2)nc(N2CCCCC2)n1 [CSV0A062711] | – | – | – | – | activity at 0.01 µM (primary cortical neurons [1]): 80 ± 11%; activity at 1 µM (primary cortical neurons [1]): 79 ± 6%; activity at 0.01 µM (primary cortical neurons [2]): 36 ± 0.5%; activity at 1 µM (primary cortical neurons [2]): 28 ± 3% |
| CCN(CC)c1cc(N/N=C/c2ccc(Cl)cc2)nc(N(CC)CC)n1 [CSV0A020149] | 52 ± 2 | 48 ± 3 | 43 ± 1 | 36 ± 1 | – |
| CN(C)c1cc(N/N=C/c2ccccc2O)nc(N(C)C)n1 [CSV0A034003] | – | – | – | – | C: Neurite outgrowth (% of control) of test compound (10 nM) + paclitaxel (1 μM) (primary cortical neurons [1]; [3]): 61±3 % of control; D: Neurite outgrowth (% of control) of test compound (1000 nM) + paclitaxel (1 μM) (primary cortical neurons [1]; [4]): 62±3 % of control; A: Synaptogenesis (% of control) of test compound (10 nM) + paclitaxel (1 μM) (primary cortical neurons [2]; [3]): 67±5 % of control; B: Synaptogenesis (% of control) of test compound (1000 nM) + paclitaxel (1 μM) (primary cortical neurons [2]; [4]): 66±9 % of control |
| O=[N+]([O-])c1ccc(/C=N/Nc2cc(N3CCCCCC3)nc(N3CCCCCC3)n2)cc1 [CSV0A012753] | 77 ± 7 | 75 ± 7 | 60 ± 1 | 61 ± 4 | – |
| Oc1cccc(/C=N/Nc2cc(N3CCCC3)nc(N3CCCC3)n2)c1 [CSV0A055770] | 82 ± 4 | 75 ± 4 | 24 ± 2 | 25 ± 2 | – |
| Oc1ccccc1/C=N/Nc1cc(N2CCOCC2)nc(N2CCOCC2)n1 [CSV0B002764] | 66 ± 6 | 67 ± 4 | 48 ± 5 | 47 ± 3 | – |
